Assay results taken from US20260055089A1, “NOVEL SUBSTITUTED BENZOTHIOPHENE-6-CARBOXYLIC ACID DERIVATIVES, PROCESSES FOR THEIR PREPARATION AND THERAPEUTIC USES THEREOF” (SANOFI, priority 2022, published 2026).

Target: T1, ERα (Homo sapiens, UniProt P03372)
T1 construct: host or cells: MCF7
T1 sequence (P03372 1-595): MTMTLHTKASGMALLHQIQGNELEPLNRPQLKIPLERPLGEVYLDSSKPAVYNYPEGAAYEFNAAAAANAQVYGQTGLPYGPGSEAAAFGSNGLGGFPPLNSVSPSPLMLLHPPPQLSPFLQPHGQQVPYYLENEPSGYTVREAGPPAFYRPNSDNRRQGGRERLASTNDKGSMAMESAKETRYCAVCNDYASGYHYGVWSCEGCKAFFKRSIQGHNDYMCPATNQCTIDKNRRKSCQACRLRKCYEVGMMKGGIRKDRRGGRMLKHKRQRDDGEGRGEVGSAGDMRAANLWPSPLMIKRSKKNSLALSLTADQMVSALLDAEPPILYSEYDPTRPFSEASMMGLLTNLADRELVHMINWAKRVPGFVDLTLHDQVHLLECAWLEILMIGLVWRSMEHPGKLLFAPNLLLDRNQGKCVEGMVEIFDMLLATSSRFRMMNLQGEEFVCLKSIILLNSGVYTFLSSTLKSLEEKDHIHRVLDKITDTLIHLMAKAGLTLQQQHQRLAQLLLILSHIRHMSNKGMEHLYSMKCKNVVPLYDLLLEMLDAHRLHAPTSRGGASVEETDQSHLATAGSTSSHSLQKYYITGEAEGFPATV
Assay: Estrogen receptor degradation activity: breast cancer cell ERα in cell western assay
Type: cell-based
Details: MCF7 cells; for % Degradation At 0.3 μM: 4 hours, relative to fulvestrant 0.1 μM positive control; for DC50: 4 hours post compound addition, concentration which degrades 50% of the estrogen receptor, read-out: Degradation IC50
Procedure: Test: Estrogen Receptor Degradation Activity
Said test involves measuring the in vitro degradation activity of the compounds of the table 1.
The measurements of the degradation activities were made using a breast cancer cell ERα in cell western assay as described hereunder.
MCF7 cells (ATCC) were seeded in 384 wells microplate (collagen coated) at a concentration of 10000 cells/30 μL per well in red phenol free MEM alpha medium (invitrogen) containing 5% charcoal dextran striped FBS. The following day, 9 points serial 1:5 dilution of each compound was added to the cells in 2.5 μL at final concentrations ranging from 0.3-0.0000018 μM (in table 2), or 0.1 μM for fulvestrant (using as positive control). At 4 hours post compound addition the cells were fixed by adding 25 μL of formalin (final concentration 5% formalin containing 0.1% triton) for 10 minutes at RT and then washed twice with PBS. Then, 50 μL of LI-COR blocking buffer containing 0.1% Triton was added to plate for 30 minutes at RT. LI-COR blocking buffer was removed and cells were incubated overnight at cold room with 50 μL anti-ER rabbit monoclonal antibody (Thermo scientific MA1-39540) diluted at 1:1000 in LI-COR blocking buffer containing 0.1% tween-20. Wells which were treated with blocking buffer but no antibody were used as background control. Wells were washed twice with PBS (0.1% tween-20) and incubated at 37° C. for 60 minutes in LI-COR (0.1% tween-20) containing goat anti-rabbit antibody Alexa 488 (1:1000) and Syto-64 a DNA dye (2 μM final concentration). Cells were then washed 3 times in PBS and scanned in ACUMEN explorer (TTP-Labtech). Integrated intensities in the green fluorescence and red fluorescence were measured to determine the levels of ERα and DNA respectively.
The degradation activity with respect to estrogen receptors in this test is given by the concentration which degrades 50% of the estrogen receptor (or ICso) in nM.
The % of ERα levels decrease were determined as follows: % inhibition=100*(1−(sample−fulvestrant:DMSO−fulvestrant)).

% Degradation At 0.3 μM [%] | DC50 [nM] | Structure (SMILES)
92 | 2 | CC(F)(F)c1cc(F)ccc1-c1sc2cc(C(=O)O)ccc2c1Oc1ccc(NC2CN(CCCF)C2)cc1.Cl [Compound 1, 2-(2-(1,1-difluoroethyl)-4-fluorophenyl)-3-(4-((1-(3-fluoropropyl)azetidin-3-yl)amino)phenoxy)benzo[b]thiophene-6-carboxylic acid, hydrochloride]
93 | 0.9 | CC(F)(F)c1cc(F)ccc1-c1sc2cc(C(=O)O)ccc2c1Oc1ccc(OC2CN(CCCF)C2)cc1 [Compound 2, 2-(2-(1,1-difluoroethyl)-4-fluorophenyl)-3-(4-((1-(3-fluoropropyl)azetidin-3-yl)oxy)phenoxy)benzo[b]thiophene-6-carboxylic acid]
85 | 5 | CC(F)(F)c1cc(F)ccc1-c1sc2cc(C(=O)O)ccc2c1Oc1ccc(O[C@H]2CCN(CCCF)C2)cc1 [Compound 3, (S)-2-(2-(1,1-difluoroethyl)-4-fluorophenyl)-3-(4-((1-(3-fluoropropyl)pyrrolidin-3-yl)oxy)phenoxy)benzo[b]thiophene-6-carboxylic acid]
